Assay results taken from patent US5614497A, “Peptide, production and use thereof” (Takeda Chemical Industries, Ltd., priority 1991, dated 1997).
pIC50: −log10 of the molar value. *1 amine or outer side, *2 acyl side, *3 side chain or, on linkers, in order; H or OH if unused. Where a SMILES comes first, the peptide text is derived from it. [ ]: non-standard residue; d: D form. The star is where a group is joined. Tyr(3-F) = N[C@@H](Cc1ccc(O)c(F)c1)C(=O)O; Tyr(3-I) = N[C@@H](Cc1ccc(O)c(I)c1)C(=O)O; Phe(4-F) = N[C@@H](Cc1ccc(F)cc1)C(=O)O; Boc = CC(C)(C)OC(=O)*; CO = O=C([*:1])[*:2]; Ahx = NCCCCCC(=O)O; X1 = C1CCCN(*)CC1; βAla = NCCC(=O)O

target: endothelin receptors; assay: Receptor Binding Assay (displacement of radioactive-iodine-labeled endothelin-1 from swine heart membrane fraction); conditions: membrane fraction prepared from swine heart; endothelin-1 labeled with radioactive iodine; incubation at 25° C, 1 hour
Protocol: The membrane fraction prepared from swine heart was diluted to 0.15 mg/ml with an assaying buffer and dispensed to assaying tubes at 100 μl per tube. To this membrane fraction suspension were added 2 μl of a solution of endothelin-1labeled with 5 nM radioactive iodine and 3 μl of a 50% dimethylsulfoxide solution of the subject peptide, followed by incubation at 25° C. After 1 hour, the suspension was diluted with 900 μl of an ice-cooled assaying buffer and centrifuged at 12,000×G for 10 minutes to separate supernatant and precipitate. The precipitate contained cell membranes and endothelin receptors embedded therein. The receptor-bound endothelin, labeled with radioactive iodine, was also recovered in the precipitate. The radioactive iodine in this precipitate was counted, using a gamma ray counter, to determine the amount of radioactive-iodine-labeled endothelin bound to the endothelin receptors. The results of the quantitative determination are shown in IC50 (M) below.

Row | SMILES | pIC50
1 | CC(C)C[C@H](NC(=O)OC(C)(C)C)C(=O)N[C@H](Cc1c[nH]c2ccccc12)C(=O)N[C@H](C)C(=O)NCCC(=O)N[C@H](CC(C)C)C(=O)O [Reference Example 2, Boc-Leu-(D)Trp-(D)Ala-βAla-(D)Leu--OH, reference compound] (Boc-L[dW][dA][βAla][dL]-OH) | 6.38
2 | CC(C)C[C@H](NC(=O)N1CCCCCC1)C(=O)N[C@H](Cc1c[nH]c2ccccc12)C(=O)N[C@H](C)C(=O)NCCC(=O)N[C@@H](Cc1ccc(O)c(I)c1)C(=O)N[C@H](Cc1ccccc1)C(=O)O [Example 43, Hexamethyleneimino-CO-Leu-(D)Trp-(D)Ala-βAla-Tyr(I)-(D)Phe-OH] ({X1-CO}-L[dW][dA][βAla][Tyr(3-I)][dF]-OH) | 9.15
3 | CC(C)C[C@H](NC(=O)OC(C)(C)C)C(=O)N[C@H](Cc1c[nH]c2ccccc12)C(=O)N[C@H](C)C(=O)NCCCCCC(=O)N[C@@H](Cc1ccc(O)cc1)C(=O)N[C@@H](Cc1ccccc1)C(=O)O [Example 5, Boc-Leu-(D)Trp-(D)Ala-εAhx-Tyr-Phe-OH] (Boc-L[dW][dA][Ahx]YF-OH) | 8.14
4 | CC(C)C[C@H](NC(=O)OC(C)(C)C)C(=O)N[C@H](Cc1c[nH]c2ccccc12)C(=O)N[C@H](C)C(=O)NCCC(=O)N[C@@H](CCC(=O)O)C(=O)O [Reference Example 1, Boc-Leu-(D)Trp-(D)Ala-βAla-Glu--OH, reference compound] (Boc-L[dW][dA][βAla]E-OH) | 6.15
5 | CC(C)C[C@H](NC(=O)OC(C)(C)C)C(=O)N[C@H](Cc1c[nH]c2ccccc12)C(=O)N[C@H](C)C(=O)NCCC(=O)N[C@@H](Cc1ccc(O)c(F)c1)C(=O)N[C@@H](Cc1ccc(F)cc1)C(=O)O [Example 38, Boc-Leu-(D)Trp-(D)Ala-βAla-(m-F)Tyr-(p-F)Phe-OH] (Boc-L[dW][dA][βAla][Tyr(3-F)][Phe(4-F)]-OH) | 7.22
6 | CC(C)C[C@H](NC(=O)N1CCCCCC1)C(=O)N[C@H](Cc1c[nH]c2ccccc12)C(=O)N[C@H](C)C(=O)NCCC(=O)N[C@@H](Cc1ccc(O)cc1)C(=O)N[C@H](Cc1ccccc1)C(=O)O [Example 39, hexamethyleneimino-CO-Leu-(D)Trp-(D)Ala-βAla-Tyr-(D)Phe-OH] ({X1-CO}-L[dW][dA][βAla]Y[dF]-OH) | 9.47
7 | CC(C)C[C@H](NC(=O)OC(C)(C)C)C(=O)N[C@H](Cc1c[nH]c2ccccc12)C(=O)N[C@H](C)C(=O)NCCC(=O)N[C@@H](Cc1ccc(O)cc1)C(=O)N[C@H](Cc1ccccc1)C(=O)O [Example 1, Boc-Leu-(D)Trp-(D)Ala-βAla-Tyr-(D)Phe-OH] (Boc-L[dW][dA][βAla]Y[dF]-OH) | 8.34
8 | CC(C)C[C@H](NC(=O)OC(C)(C)C)C(=O)N[C@H](Cc1c[nH]c2ccccc12)C(=O)N[C@H](C)C(=O)NCCC(=O)N[C@@H](Cc1ccc(O)cc1)C(=O)N[C@@H](Cc1ccccc1)C(=O)O [Example 2, Boc-Leu-(D)Trp-(D)Ala-βAla-Tyr-Phe-OH] (Boc-L[dW][dA][βAla]YF-OH) | 8.05
